Data on 1 molecule can be found in patent publication US9029405B2, “5-(biphenyl-4-yl)-3-phenyl-1,2,4-oxadiazolyl derivatives as ligands on the sphingosine 1-phosphate(SIP)receptors” (Merck Serono S.A., priority 2010, dated 2015).

The target in data set [1] is T1, S1P1 (Homo sapiens, UniProt P21453). Nature of the data set: Receptor binding assay, [33P]sphingosine 1-phosphate competition, membranes of CHO cells expressing S1P1. To be noted: 384 well plate; read-out: S1P1 Binding Ki [M] (384 well plate). Put shortly: (§1)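 SPA competition on CHO membranes with [33P]S1P at 30 pM (S1P1) or 15 pM (S1P3), in 50 mM HEPES pH 7.5, 5 mM MgCl2, 100 mM NaCl, 0.4% fatty acid-free BSA, 60 min at RT. Non-specific binding defined by 1000-fold unlabeled S1P; Ki values reported.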
Target sequence in this assay (P21453 whole entry, species assumed): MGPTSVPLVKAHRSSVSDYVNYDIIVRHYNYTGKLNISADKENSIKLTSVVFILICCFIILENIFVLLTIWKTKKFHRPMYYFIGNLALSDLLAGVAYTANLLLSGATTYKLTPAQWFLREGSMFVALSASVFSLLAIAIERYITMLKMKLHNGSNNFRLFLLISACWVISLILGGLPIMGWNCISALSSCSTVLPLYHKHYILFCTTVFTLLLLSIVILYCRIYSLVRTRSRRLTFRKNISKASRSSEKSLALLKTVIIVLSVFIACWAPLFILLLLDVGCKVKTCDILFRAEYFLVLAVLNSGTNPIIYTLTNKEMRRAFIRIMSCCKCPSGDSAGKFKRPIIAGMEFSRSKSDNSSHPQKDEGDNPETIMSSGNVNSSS

The target in data set [2] is T1, S1P1. As to the kind of experiment: S1P1 internalization assay in S1P1-U2OS cells (cell imaging). In kind it is cell-based. To be noted: U2OS cells expressing S1P1-EGFP, 384-well format. More on the design: host or cells: U2OS (human bone osteosarcoma epithelial cells). In short, it runs like this:
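U2OS cells stably expressing human S1P1-EGFP, serum-starved 2 h in medium with 0.1% fatty-acid-free BSA, then compound 1 h at 37° C. After fixation and Hoechst nuclear stain, receptor internalization imaged as EGFP spot count per nucleus.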
Target sequence in this assay (P21453 whole entry): as the sequence (P21453 whole entry, species assumed) above

The nature of data set [3]: Pharmacokinetics from lymphopenia study (mouse). In kind it is in vivo. To be noted: PK-PD (30 mpk). As for the experimental part:
(§2) Female C57BL/6 mice (Elevage Janvier) (8 week old) receive S1P agonists by oral route. Blood is sampled in heparinized (100 IU/kg, ip) mice by intracardiac or retroorbital puncture under isoflurane anesthesia 2 to 120 hrs after drug treatment. The white blood cells (lymphocytes and neutrophils) are counted using a Beckman/Coulter counter. The quality of blood sampling is assessed by counting erythocytes and platelets.
The pharmacokinetic properties of compound of example 31, 2-({2-Fluoro-4-[5-(2′-methyl-2-trifluoromethyl-biphenyl-4-yl)-[1,2,4]oxadiazol-3-yl]-benzyl}-methyl-amino)-2-methyl-propionic acid, are the following: […]

A further data set deals with S1P3 (Homo sapiens, UniProt Q99500). Nature of the data set: Receptor binding assay, [33P]sphingosine 1-phosphate competition, membranes of CHO cells expressing S1P3. To be noted: 384 well plate; read-out: S1P3 Binding Ki [M] (384 well plate). In short, it runs like this: as §1
The subject of another data set is lymphocytes. As to the kind of experiment: Model of S1P agonists-induced lymphopenia in mice. In kind it is in vivo. To be noted: oral route, 30 mpk. As for the experimental part:
as §2

[4] abbreviates: female, C57BL/6, plasma, 30 mg/kg, oral route.

Chain of S1P3 (Q99500 whole entry, species assumed): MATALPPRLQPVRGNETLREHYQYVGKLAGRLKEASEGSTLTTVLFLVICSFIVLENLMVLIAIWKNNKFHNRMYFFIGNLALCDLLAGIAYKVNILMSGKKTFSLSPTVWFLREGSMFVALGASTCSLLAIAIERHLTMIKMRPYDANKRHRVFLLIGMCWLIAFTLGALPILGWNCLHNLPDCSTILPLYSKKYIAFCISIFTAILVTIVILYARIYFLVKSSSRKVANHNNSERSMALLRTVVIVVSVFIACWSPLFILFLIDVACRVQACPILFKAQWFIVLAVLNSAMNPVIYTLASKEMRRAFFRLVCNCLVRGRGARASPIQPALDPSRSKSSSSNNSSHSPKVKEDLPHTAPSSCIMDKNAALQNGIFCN

By Ki is commonly meant a dissociation constant, usually derived from enzyme kinetics or from competition with a known ligand. For orientation: EC50 means the concentration at which the effect is half-maximal. A lower EC50 goes with an effect from little substance. As usually defined, the AUC(0-inf) is the area under the concentration-time curve extrapolated to infinity. One may read the Cmax as the maximum level reached in the sampled fluid or tissue. As usually defined, the Tmax is the time at which the peak concentration occurs. Take `Cc1ccccc1-c1ccc(-c2nc(-c3ccc(CN(C)C(C)(C)C(=O)O)c(F)c3)no2)cc1C(F)(F)F` [Example 31, 2-({2-Fluoro-4-[5-(2′-methyl-2-trifluoromethyl-biphenyl-4-yl)-[1,2,4]oxadiazol-3-yl]-benzyl}-methyl-amino)-2-methyl-propionic acid]: at S1P1 [1], the Ki came to 5.32e-09 M. Moreover, the response on S1P1 [2] was half-maximal at 0.0366 µM (EC50). In addition, in data set [3] (24 h), the “Lymphe node/plasma ratio: 24 h” value is reported as 2.5. Further, the “Lymphe node/plasma ratio: 48 h” value in data set [3] (48 h) is on record as 2.7. This molecule registered a CI/F in data set [3] (oral route) of 0.4 L/h/kg. Further, the Kp in data set [3] (female, C57BL/6, brain/plasma, oral, 30 mg/kg, ratio of AUCz, read-out: Brain/plasma ratio: AUCZ (h*ng/ml)) was determined as 3.5. Further, in data set [3] (setting [4]), the AUC(0-inf) worked out at 75 µg·h/mL, the highest level (Cmax) was 7.42 µg/mL and the time to peak (Tmax) amounted to 2 h. Besides, the half-life in data set [3] (female, C57BL/6, plasma, 30 mg/kg, oral route, read-out: T½ (converted)) was 6.3 h. The inhibition constant Ki at S1P3 is 2.54e-06 M. Moreover, in the data set with lymphocytes, the “% of lymphopenia in mouse at 48 h” value was “% of lymphopenia in mouse at 48 h 67 +/− 6”.
